Patent publication US11485751B2, “Apramycin derivatives” (WAYNE STATE UNIVERSITY, priority 2017, dated 2022)
pIC50: −log10 of the molar value. Values after ≈ are worked out from the molar mass of the structure shown. Where two headings read alike, the source gives them in different places.

Columns and labels:
[1] = test system: human cytosolic ribosomes; assay: in-vitro translation assay, human cytosolic ribosomes; assay type: biochemical
Summary of the method: (§1)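 Reported values are IC50s for inhibition of in-vitro translation. For the mitochondrial target, human chimeric ribosomes were used. For the cytosolic target, rabbit reticulocyte ribosomes were used.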

[2] = test system: Engineered E. coli pH425 rmtB; assay: Activity against G1405-methylated 16S-rRNA, E. coli pH425 rmtB; assay type: cell-based
Summary of the method: (§2)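 Strains are tested by broth microdilution under the CLSI M07-A10 procedure. The lowest inhibitory concentration is recorded as the MIC.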

AG055 E. coli WT = assay: Antibacterial activity, clinical isolate AG055; assay type: cell-based; parameters: unit not given here
Summary of the method: (§3)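 Compounds are serially diluted in liquid medium in microplates, bacteria are added, and the lowest concentration preventing growth is recorded as the MIC (CLSI procedure).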

[3] = test system: Engineered E. coli pH430 WT; assay: Activity, engineered E. coli pH430 WT; assay type: cell-based; details: wild type
Summary of the method: as §2

AG038 MRSA = assay: Antibacterial activity, clinical isolate AG038; assay type: cell-based; parameters: unit not given here
Summary of the method: as §3

[4] = test system: AG042 MRSA AAC(6′)-I ANT(4′)-I APH(2′); assay: Antibacterial activity, clinical isolate AG042; assay type: cell-based; parameters: unit not given here
Summary of the method: as §3

[5] = test system: Enterob. AG302 AAC(3)-II AAC(6′)-I rmtC; assay: Activity against G1405-methylated 16S-rRNA, clinical isolate AG302; assay type: cell-based
Summary of the method: as §2

AG163 E. coli APH(3′)-I = assay: Antibacterial activity, clinical isolate AG163; assay type: cell-based
Summary of the method: as §3

AG032 P. aer. APH(3′)-II = assay: Antibacterial activity, clinical isolate AG032; assay type: cell-based; parameters: unit not given here
Summary of the method: as §3

AG173 E. coli AAC(3)-IV = assay: Antibacterial activity, clinical isolate AG173; assay type: cell-based
Summary of the method: as §3

[6] = test system: APH(3′, 5″) resistance determinant; assay: Susceptibility to the APH(3′, 5″) resistance determinant; assay type: cell-based
Description: (§4) Minimal inhibitory concentrations (MIC) have been determined by broth microdilution assays (CLSI. Methods for Dilution Antimicrobial Susceptibility Tests for Bacteria That Grow Aerobically; Approved Standard—Tenth Edition. CLSI document M07-A10. Wayne, Pa.: Clinical and Laboratory Standards Institute; 2015.).
The introduction of a formamido group results in compounds that display increased selectivity for the bacterial ribosome over the mitochondrial (wild type and A1555G mutant) ribosomes, predictive of reduced ototoxicity.

[7] = test system: Engineered E. coli pH424 armA; assay: Activity against G1405-methylated 16S-rRNA, E. coli pH424 armA; assay type: cell-based
Summary of the method: as §2

AG001 E. coli WT = assay: Antibacterial activity, clinical isolate AG001; assay type: cell-based; parameters: unit not given here
Summary of the method: as §3

[8] = test system: clinical isolates carrying APH(3′)-I; assay: MIC broth microdilution, APH(3′)-I; assay type: cell-based; details: IMM Univ. Zurich
[9] = test system: K. pneum. AG269 AAC(3)-II AAC(6′)-I rmtB; assay: Activity against G1405-methylated 16S-rRNA, clinical isolate AG269; assay type: cell-based
Summary of the method: as §2

AG031 P. aer. APH(3′)-II = assay: Antibacterial activity, clinical isolate AG031; assay type: cell-based; parameters: unit not given here
Summary of the method: as §3

[10] = test system: E. coli AG153 AAC(3)-II APH(3′)-II rmtB; assay: Activity against G1405-methylated 16S-rRNA, clinical isolate AG153; assay type: cell-based
Summary of the method: as §2

[11] = test system: AG225, Acinetobacter baumannii pittii; assay: MIC reference strain AG225; assay type: cell-based; details: Acinetobacter baumannii, reference strain; read-out: MIC AG225 A. baumannii
Summary of the method: (§5)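 Compounds serially diluted in broth, bacteria added, growth inhibition scored; the lowest inhibitory concentration is taken as MIC, following CLSI procedures.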

[12] = test system: Engineered E. coli AG103 armA; assay: Activity against G1405-methylated 16S-rRNA, E. coli AG103 armA; assay type: cell-based
Summary of the method: as §2

AG003 E. coli AAC(3)-II = assay: Antibacterial activity, clinical isolate AG003; assay type: cell-based
Summary of the method: as §3

[13] = test system: clinical isolates carrying AAC(3)-IV; assay: MIC broth microdilution, AAC(3)-IV; assay type: cell-based; details: for MIC: clinical isolates, IMM Univ. Zurich, AAC(3)-IV, read-out: MIC AAC(3)-IV
Summary of the method: (§6)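 Clinical isolates supplied by the Zurich Institute of Medical Microbiology were tested for MIC (μg/ml) using CLSI M07-A10 broth microdilution.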

[14] = test system: AG033 P. aer. APH(3′)-II AAC(6′)-I; assay: Antibacterial activity, clinical isolate AG033; assay type: cell-based; parameters: unit not given here
Summary of the method: as §3

[15] = test system: AG215, Klebsiella pneumonia; assay: MIC reference strain AG215; assay type: cell-based; details: Klebsiella pneumoniae, reference strain; read-out: MIC AG215 K. pneumonia
Summary of the method: as §5

[16] = test system: clinical isolates carrying APH(3′)-VI; assay: MIC broth microdilution, APH(3′)-VI; assay type: cell-based; details: IMM Univ. Zurich
[17] = test system: AG039 MRSA AAC(6′)-I ANT(4′)-I; assay: Antibacterial activity, clinical isolate AG039; assay type: cell-based
Summary of the method: as §3

ATCC19977 M. abcessus = assay: MIC reference strain ATCC19977; assay type: cell-based; details: read-out: MIC ATCC19977 M. abcessus
Summary of the method: as §3

[18] = test system: clinical isolates carrying APH(3′)-III; assay: MIC broth microdilution, APH(3′)-III; assay type: cell-based; details: IMM Univ. Zurich
Description: as §4
Minimal inhibitory concentrations (MICs, […]) against clinical isolates from Institute of Medical Microbiology, Univ. Zurich, and the IC50 values for bacterial, human mitochondrial and human cytosolic ribosomes are indicated.

[19] = test system: AG220, Pseudomonas aeruginosa ATCC27853; assay: MIC reference strain AG220; assay type: cell-based; details: Pseudomonas aeruginosa, ATCC27853, reference strain ATCC27853; read-out: MIC AG220 P. aeruginosa
Summary of the method: as §5

[20] = test system: AG290, Enterobacter cloacae; assay: MIC reference strain AG290; assay type: cell-based; details: Enterobacter cloacae; reference strain; read-out: MIC AG290 E. cloacae
Summary of the method: as §5

[21] = test system: Engineered E. coli pH426 rmtC; assay: Activity against G1405-methylated 16S-rRNA, E. coli pH426 rmtC; assay type: cell-based
Summary of the method: as §2

eukaryotic ribosomes = assay: in-vitro translation assays, bacterial versus eukaryotic ribosomes; assay type: biochemical
Description: IC50 values for bacterial, human chimeric, and rabbit reticulocyte ribosomes have been determined by in-vitro translation assays as described previously (Proc. Nat. Ac. Sci USA 2012, 109(27):10984-10989).

[22] = test system: A baum. AG227 APH(3′)-I armA; assay: Activity against G1405-methylated 16S-rRNA, clinical isolate AG227; assay type: cell-based
Summary of the method: as §2

[23] = test system: AG212, Escherichia coli ATCC25922; assay: MIC reference strain AG212; assay type: cell-based; details: Escherichia coli; reference strain ATCC25922; read-out: MIC AG212 E. coli
Summary of the method: as §5

bacterial ribosomes = assay: in-vitro translation assay, bacterial ribosomes; assay type: biochemical
Summary of the method: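 Cell-free translation; IC50 read-out. Mito = human chimeric ribosomes; cytosolic = rabbit reticulocyte ribosomes; bacterial ribosomes run in the same assay format.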

[24] = test system: clinical isolates carrying APH(3′)-II; assay: MIC broth microdilution, APH(3′)-II; assay type: cell-based; details: clinical isolates, IMM Univ. Zurich; APH(3′)-II; read-out: MIC APH(3′)-II
[25] = test system: Engineered E. coli pH427 rmtF; assay: Activity against G1405-methylated 16S-rRNA, E. coli pH427 rmtF; assay type: cell-based
Summary of the method: as §2

[26] = test system: human mitochondrial ribosomes; assay: in-vitro translation assay, human mitochondrial (human chimeric) ribosomes; assay type: biochemical
Summary of the method: as §1

WT clinical isolates = assay: MIC broth microdilution, WT; assay type: cell-based; details: read-out: MIC WT, clinical isolates, IMM Univ. Zurich; wild type
Summary of the method: as §6

isolates carrying apmA = assay: MIC broth microdilution, apmA; assay type: cell-based; details: for MIC: apmA resistance gene
Summary of the method: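 Clinical isolates carrying apmA, from the University of Zurich Institute of Medical Microbiology, were tested by broth microdilution following CLSI M07-A10; values are MICs in μg/ml.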

N. gonorrhoeae = assay: Disk diffusion N. gonorrhoeae; assay type: cell-based

Row | SMILES | pIC50 [1] | Activity E. coli pH425 rmtB [2] | Antibacterial activity AG055 E. coli WT (AG055 E. coli WT) | Activity E. coli pH430 WT [3] | Antibacterial activity AG038 MRSA (AG038 MRSA) | Antibacterial activity AG042 MRSA AAC(6′)-I ANT(4′)-I APH(2′) [4] | Antibacterial activity AG032 P. aer. APH(3′)-II (AG032 P. aer. APH(3′)-II) | Antibacterial activity AG173 E. coli AAC(3)-IV (AG173 E. coli AAC(3)-IV) | Activity E. coli pH424 armA [7] | Antibacterial activity AG001 E. coli WT (AG001 E. coli WT) | Antibacterial activity AG031 P. aer. APH(3′)-II (AG031 P. aer. APH(3′)-II) | MIC [11] [µg/mL] | Antibacterial activity AG003 E. coli AAC(3)-II (AG003 E. coli AAC(3)-II) | MIC [13] [µg/mL] | Antibacterial activity AG033 P. aer. APH(3′)-II AAC(6′)-I [14] | MIC [15] [µg/mL] | Antibacterial activity AG039 MRSA AAC(6′)-I ANT(4′)-I [17] | MIC [19] [µg/mL] | MIC [20] [µg/mL] | Activity E. coli pH426 rmtC [21] | other results
1 | CNC1C(OC2OC(CO)C(N)C(O)C2O)OC2CC(N)C(OC3C(N)CC(N)C(O)C3OC3OC(CO)C(OCCN)C3O)OC2C1O [DC124, 5-O-β-(3′″-O-(2-Aminoethyl)-D-ribofuranosyl) apramycin] | 3.74 | 4 | 8 | 2 | 8-16 | 8 | 32-64 | 4 | 1 | 8 | 32-64 | 8 | 4-8 | > 32 | 128 | 1 to 2 | 8 | 16 to 32 | 1 to 2 | 2 | Activity Enterob. AG302 AAC(3)-II AAC(6′)-I rmtC [5]: 4; Antibacterial activity AG163 E. coli APH(3′)-I (AG163 E. coli APH(3′)-I): 4-8; susceptibility to the APH(3′, 5″) resistance determinant [6]: susceptible; MIC [8]: 64 µg/mL (≈ 89.5 µM); Activity K. pneum. AG269 AAC(3)-II AAC(6′)-I rmtB [9]: 2; Activity E. coli AG153 AAC(3)-II APH(3′)-II rmtB [10]: 4; Activity E. coli AG103 armA [12]: 0.5; activity against the IMM clinical isolates carrying the gene for AAC(3)-IV [13]: excellent antiribosomal and antibacterial activity; MIC [16]: 4 µg/mL (≈ 5.6 µM); MIC (ATCC19977 M. abcessus): 8 µg/mL (≈ 11.2 µM); MIC [18]: 0.5 µg/mL (≈ 0.7 µM); activity against eukaryotic ribosomes (eukaryotic ribosomes): only low activity; selectivity at the target level (eukaryotic ribosomes; bacterial versus eukaryotic ribosomes): excellent selectivity; Activity A baum. AG227 APH(3′)-I armA [22]: 16; MIC [23]: 2 µg/mL; pIC50 (bacterial ribosomes): 7.22; MIC [24]: 2 µg/mL (≈ 2.8 µM); Activity E. coli pH427 rmtF [25]: 2; pIC50 [26]: 4.24
2 | CNC1C(OC2OC(CO)C(N)C(O)C2O)OC2CC(N)C(OC3C(N)CC(N)C(O)C3O)OC2C1O (stereo not drawn) [DC161, 5-Epi-apramycin] | 4.77 | 2 | 4 | 2 | 4 | 2-4 | 4 | 64 | 2 | 4 | 4 | 2 | 4-8 | > 32 | 8 | 1 | 4 | 2 | 2 | 2 | MIC (WT clinical isolates): 2 µg/mL (≈ 3.71 µM); circumvention of the resistance mechanism apmA (isolates carrying apmA): circumvent the resistance mechanism apmA; MIC (isolates carrying apmA): 2 µg/mL (≈ 3.71 µM); MIC (ATCC19977 M. abcessus; reference strain): 0.5 µg/mL (≈ 0.927 µM); Disk diffusion 25 nmol N. gonorrhoeae (N. gonorrhoeae): 10 mm; MIC [23]: 2 µg/mL; pIC50 (bacterial ribosomes): 7.30; Activity E. coli pH427 rmtF [25]: 2; pIC50 [26]: 4.70
3 | CNC1C(O[C@H]2OC(CO)[C@@H](N)C(O)C2O)O[C@H]2CC(N)[C@@H](O[C@@H]3C(N)C[C@@H](N)C(O)C3O)OC2C1O (stereo partly drawn) [apramycin] | 4.15 | 4 | 8 | 2-4 | 4-8 | 8 | 8 | ≥128 | 2-4 | 8-16 | 8-16 | 4 | 8 | > 128 | 16-32 | 2 | 8 | 4 | 4 | 4 | MIC (WT clinical isolates): 2 to 4 µg/mL (≈ 3.71 to 7.41 µM); Activity Enterob. AG302 AAC(3)-II AAC(6′)-I rmtC [5]: 4; Antibacterial activity AG163 E. coli APH(3′)-I (AG163 E. coli APH(3′)-I): 4; MIC [8]: 1 to 2 µg/mL (≈ 1.85 to 3.71 µM); Activity K. pneum. AG269 AAC(3)-II AAC(6′)-I rmtB [9]: 2; Activity E. coli AG153 AAC(3)-II APH(3′)-II rmtB [10]: 8; Activity E. coli AG103 armA [12]: 1-2; MIC (isolates carrying apmA): 64 µg/mL (≈ 119 µM); MIC [16]: 4 µg/mL (≈ 7.41 µM); MIC (ATCC19977 M. abcessus; reference strain): 2 µg/mL (≈ 3.71 µM); MIC [18]: 1 µg/mL (≈ 1.85 µM); Disk diffusion 25 nmol N. gonorrhoeae (N. gonorrhoeae): <8 mm; Activity A baum. AG227 APH(3′)-I armA [22]: 2; MIC [23]: 4 µg/mL; pIC50 (bacterial ribosomes): 7.10; Activity E. coli pH427 rmtF [25]: 4; pIC50 [26]: 4.17
